Test results from patent US10722520B2, “Heterocyclic compounds and their use in preventing or treating bacterial infections” (MUTABILIS, priority 2016, dated 2020).

Legend:
OXA-11 = OXA-11 (Pseudomonas aeruginosa, UniProt Q06778)
OXA-48 = OXA-48 (Klebsiella pneumoniae, UniProt Q6XEC0)
E. coli UFR18 = assay: MIC of ceftazidime (CAZ) at fixed concentration of compound (synergy), broth microdilution; format: cell-based; details: MIC of ceftazidime with compound fixed at 4 μg/mL; strain UFR18 (E. coli)
Outline: (§1)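 Growth inhibition was scored by eye after 16-20 h at 35° C (room air), with bacteria from log phase seeded at 5×10^5 cfu/mL final in cation-adjusted Mueller-Hinton medium.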

E. coli UFR74 = assay: as above; format: cell-based; details: MIC of ceftazidime with compound fixed at 4 μg/mL; strain UFR74 (E. coli)
Outline: as §1

K. pneumoniae 6299 [1] = assay: as above; format: cell-based; details: MIC of ceftazidime with compound fixed at 4 μg/mL; strain 6299 (K. pneumoniae)
Outline: as §1

K. oxytoca UFR21 = assay: as above; format: cell-based; details: MIC of ceftazidime with compound fixed at 4 μg/mL; strain UFR21 (K. oxytoca)
Outline: as §1

P. aeruginosa CIP107051 = assay: as above; format: cell-based; details: MIC of ceftazidime with compound fixed at 4 μg/mL; strain CIP107051 (P. aeruginosa)
Outline: as §1

E. coli 190317 = assay: as above; format: cell-based; details: MIC of ceftazidime with compound fixed at 4 μg/mL; strain 190317 (E. coli)
Outline: as §1

K. pneumoniae 200047 = assay: as above; format: cell-based; details: MIC of ceftazidime with compound fixed at 4 μg/mL; strain 200047 (K. pneumoniae)
Outline: as §1

E. cloacae P99 [2] = assay: as above; format: cell-based; details: MIC of ceftazidime with compound fixed at 4 μg/mL; strain P99 (E. cloacae)
Outline: as §1

E. coli RGN238 = assay: as above; format: cell-based; details: MIC of ceftazidime with compound fixed at 4 μg/mL; strain RGN238 (E. coli)
Outline: as §1

K. pneumoniae UFR24 [3] = assay: as above; format: cell-based; details: MIC of ceftazidime with compound fixed at 4 μg/mL; strain UFR24 (K. pneumoniae)
Outline: as §1

E. cloacae UFR85 = assay: as above; format: cell-based; details: MIC of ceftazidime with compound fixed at 4 μg/mL; strain UFR85 (E. cloacae)
Outline: as §1

K. pneumoniae 160143 = assay: as above; format: cell-based; details: MIC of ceftazidime with compound fixed at 4 μg/mL; strain 160143 (K. pneumoniae)
Outline: as §1

K. pneumoniae UFR77 = assay: as above; format: cell-based; details: MIC of ceftazidime with compound fixed at 4 μg/mL; strain UFR77 (K. pneumoniae)
Outline: as §1

E. coli UFR61O = assay: as above; format: cell-based; details: MIC of ceftazidime with compound fixed at 4 μg/mL; strain UFR61O (E. coli)
Outline: as §1

K. pneumoniae UFR68 = assay: as above; format: cell-based; details: MIC of ceftazidime with compound fixed at 4 μg/mL; strain UFR68 (K. pneumoniae)
Outline: as §1

E. cloacae 260508 = assay: as above; format: cell-based; details: MIC of ceftazidime with compound fixed at 4 μg/mL; strain 260508 (E. cloacae)
Outline: as §1

E. cloacae UFR51 = assay: as above; format: cell-based; details: MIC of ceftazidime with compound fixed at 4 μg/mL; strain UFR51 (E. cloacae)
Outline: as §1

E. cloacae UFR70 = assay: as above; format: cell-based; details: MIC of ceftazidime with compound fixed at 4 μg/mL; strain UFR70 (E. cloacae)
Outline: as §1

E. coli UFR32 = assay: as above; format: cell-based; details: MIC of ceftazidime with compound fixed at 4 μg/mL; strain UFR32 (E. coli)
Outline: as §1

K. pneumoniae BAA-1898 [4] = assay: as above; format: cell-based; details: MIC of ceftazidime with compound fixed at 4 μg/mL; strain BAA-1898 (K. pneumoniae)
Outline: as §1

E. coli UFR41 = assay: as above; format: cell-based; details: MIC of ceftazidime with compound fixed at 4 μg/mL; strain UFR41 (E. coli)
Outline: as §1

E. coli 131119 = assay: as above; format: cell-based; details: MIC of ceftazidime with compound fixed at 4 μg/mL; strain 131119 (E. coli)
Outline: as §1

E. coli UFR39 = assay: as above; format: cell-based; details: MIC of ceftazidime with compound fixed at 4 μg/mL; strain UFR39 (E. coli)
Outline: as §1

K. pneumoniae 6299 [5] = assay: MIC of compound alone, broth microdilution; format: cell-based; details: Klebsiella pneumoniae; strain 6299: K. pneumoniae; TEM-1, SHV-11, OXA-163; read-out: MIC compounds of the invention alone
Outline: as §1

E. cloacae P99 [6] = assay: MIC of compound alone, broth microdilution; format: cell-based; details: Enterobacter cloacae; strain P99: E. cloacae; AmpC; read-out: MIC compounds of the invention alone
Outline: as §1

K. pneumoniae UFR24 [7] = assay: MIC of compound alone, broth microdilution; format: cell-based; details: Klebsiella pneumoniae; strain UFR24: K. pneumoniae; TEM-1, SHV-2, SHV-11, OXA-1, OXA-48, OXA-47; read-out: MIC compounds of the invention alone
Outline: as §1

K. pneumoniae BAA-1898 [8] = assay: MIC of compound alone, broth microdilution; format: cell-based; details: Klebsiella pneumoniae, BAA1898; strain BAA-1898: K. pneumoniae; TEM-1, SHV-11, SHV-12, KPC-2; read-out: MIC compounds of the invention alone
Outline: as §1

OXA-48, sequence (Q6XEC0 23-265, looked up, species assumed): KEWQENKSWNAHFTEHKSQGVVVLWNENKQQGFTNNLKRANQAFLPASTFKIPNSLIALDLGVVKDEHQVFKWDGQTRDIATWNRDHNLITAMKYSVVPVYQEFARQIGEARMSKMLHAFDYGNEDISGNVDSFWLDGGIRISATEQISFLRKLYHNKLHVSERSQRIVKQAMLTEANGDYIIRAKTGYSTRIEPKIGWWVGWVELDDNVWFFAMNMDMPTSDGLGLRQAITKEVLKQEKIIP
OXA-11, sequence (Q06778 21-266): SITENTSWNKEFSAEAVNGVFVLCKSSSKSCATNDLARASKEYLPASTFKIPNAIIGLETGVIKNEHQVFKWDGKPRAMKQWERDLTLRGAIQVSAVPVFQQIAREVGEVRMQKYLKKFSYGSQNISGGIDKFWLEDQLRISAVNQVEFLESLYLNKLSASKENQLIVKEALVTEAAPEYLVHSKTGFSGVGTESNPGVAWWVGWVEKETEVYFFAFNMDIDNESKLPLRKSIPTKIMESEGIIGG

Row | Compound | IC50 (OXA-11) | IC50 (OXA-48) | MIC combination of CAZ and compounds of the invention at 4 μg/mL (E. coli UFR18) | MIC combination of CAZ and compounds of the invention at 4 μg/mL (E. coli UFR74) | MIC combination of CAZ and compounds of the invention at 4 μg/mL (K. pneumoniae 6299 [1]) | MIC combination of CAZ and compounds of the invention at 4 μg/mL (K. oxytoca UFR21) | MIC combination of CAZ and compounds of the invention at 4 μg/mL (P. aeruginosa CIP107051) | MIC combination of CAZ and compounds of the invention at 4 μg/mL (E. coli 190317) | MIC combination of CAZ and compounds of the invention at 4 μg/mL (K. pneumoniae 200047) | MIC combination of CAZ and compounds of the invention at 4 μg/mL (E. cloacae P99 [2]) | MIC combination of CAZ and compounds of the invention at 4 μg/mL (E. coli RGN238) | MIC combination of CAZ and compounds of the invention at 4 μg/mL (K. pneumoniae UFR24 [3]) | MIC combination of CAZ and compounds of the invention at 4 μg/mL (E. cloacae UFR85) | MIC combination of CAZ and compounds of the invention at 4 μg/mL (K. pneumoniae 160143) | MIC combination of CAZ and compounds of the invention at 4 μg/mL (K. pneumoniae UFR77) | MIC combination of CAZ and compounds of the invention at 4 μg/mL (E. coli UFR61O) | MIC combination of CAZ and compounds of the invention at 4 μg/mL (K. pneumoniae UFR68) | MIC combination of CAZ and compounds of the invention at 4 μg/mL (E. cloacae 260508) | MIC combination of CAZ and compounds of the invention at 4 μg/mL (E. cloacae UFR51) | MIC combination of CAZ and compounds of the invention at 4 μg/mL (E. cloacae UFR70) | also measured
1 | O=C1N2CC(n3nccn3)=CC(C2)N1OS(=O)(=O)O (stereo not drawn) [Example 3, sodium [7-oxo-3-(triazol-2-yl)-1,6-diazabicyclo[3.2.1]oct-3-en-6-yl]sulfate] | 85 nM | 1.6 nM | <0.25 | <0.25 | <0.25 | 0.5 | 4 | <0.25 | <0.25 | ≤0.25 | <0.25 | ≤0.25 | <0.25 | <0.25 | <0.25 | ≤0.25 | 0.5 | <0.25 | <0.25 | <0.25 | MIC combination of CAZ and compounds of the invention at 4 μg/mL (E. coli UFR32): <0.25; MIC combination of CAZ and compounds of the invention at 4 μg/mL (K. pneumoniae BAA-1898 [4]): 0.5; MIC combination of CAZ and compounds of the invention at 4 μg/mL (E. coli UFR41): >128; MIC combination of CAZ and compounds of the invention at 4 μg/mL (E. coli 131119): <0.25; MIC combination of CAZ and compounds of the invention at 4 μg/mL (E. coli UFR39): >128; MIC (K. pneumoniae 6299 [5]): 16 µg/mL; MIC (E. cloacae P99 [6]): 8 µg/mL; MIC (K. pneumoniae UFR24 [7]): 8 µg/mL; MIC (K. pneumoniae BAA-1898 [8]): 8 µg/mL
2 | O=C1N2CC(n3ccnn3)=C[C@H](C2)N1OS(=O)(=O)O [Example 6, sodium [(5R)-7-oxo-3-(triazol-1-yl)-1,6-diazabicyclo[3.2.1]oct-3-en-6-yl]sulfate] | 21 nM | 0.38 nM | <0.25 | <0.25 | <0.25 | <0.25 | 4 | <0.25 | <0.25 | <0.25 | <0.25 | <0.25 | <0.25 | <0.25 | <0.25 | <0.25 | <0.25 | <0.25 | <0.25 | <0.25 | MIC combination of CAZ and compounds of the invention at 4 μg/mL (E. coli UFR32): <0.25; MIC combination of CAZ and compounds of the invention at 4 μg/mL (K. pneumoniae BAA-1898 [4]): <0.25; MIC combination of CAZ and compounds of the invention at 4 μg/mL (E. coli UFR41): <0.25; MIC combination of CAZ and compounds of the invention at 4 μg/mL (E. coli 131119): <0.25; MIC combination of CAZ and compounds of the invention at 4 μg/mL (E. coli UFR39): <0.25; MIC (K. pneumoniae 6299 [5]): 2 µg/mL; MIC (E. cloacae P99 [6]): 1 µg/mL; MIC (K. pneumoniae UFR24 [7]): 1 µg/mL; MIC (K. pneumoniae BAA-1898 [8]): 2 µg/mL
3 | O=C1N2CC(n3ccsc3=O)=CC(C2)N1OS(=O)(=O)[O-].[Na+] (stereo not drawn) [Example 1, Sodium [7-oxo-3-(2-oxo-thiazol-3-yl)-1,6-diaza-bicyclo[3.2.1]oct-3-en-6-yl]sulfate] | 92 nM | 1.9 nM | <0.25 | ≤0.25 | ≤0.25 | 0.5 | 8 | <0.25 | ≤0.25 | <0.25 | <0.25 | 0.5 | <0.25 | ≤0.25 | ≤0.25 | ≤0.25 | <0.25 | <0.25 | <0.25 | ≤0.25 | MIC combination of CAZ and compounds of the invention at 4 μg/mL (E. coli UFR32): <0.25; MIC combination of CAZ and compounds of the invention at 4 μg/mL (K. pneumoniae BAA-1898 [4]): ≤0.25; MIC combination of CAZ and compounds of the invention at 4 μg/mL (E. coli UFR41): 0.5; MIC combination of CAZ and compounds of the invention at 4 μg/mL (E. coli 131119): <0.25; MIC combination of CAZ and compounds of the invention at 4 μg/mL (E. coli UFR39): <0.25; MIC (K. pneumoniae 6299 [5]): 32 µg/mL; MIC (E. cloacae P99 [6]): 4 µg/mL; MIC (K. pneumoniae UFR24 [7]): 16 µg/mL; MIC (K. pneumoniae BAA-1898 [8]): 8 µg/mL
